Target: GST tagged truncated human mutant G2019S LRRK2 (Homo sapiens (Human), UniProt Q5S007, G2019S)
Assay: LRRK2 Km ATP LanthaScreen Assay
Type: biochemical
Conditions: G2019S LRRK2, 134 μM ATP (Km ATP), mean values
Procedure, shortened: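 Enzyme (GST-tagged, truncated) was preincubated with compound for 15 min at RT in 50 mM Tris pH 8.5, 10 mM MgCl2, 0.01% Brij-35, 1 mM EGTA, 2 mM DTT and 0.05 mM orthovanadate. Fluorescein-LRRKtide and 134 μM ATP (Km) were then added for 90 min. EDTA and Tb-anti-pERM antibody stopped the reaction; the TR-FRET 520/495 ratio gave 4-parameter IC50s, reported as mean pIC50.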

Chain of GST tagged truncated human mutant G2019S LRRK2 (Q5S007 970-2527 G2019S): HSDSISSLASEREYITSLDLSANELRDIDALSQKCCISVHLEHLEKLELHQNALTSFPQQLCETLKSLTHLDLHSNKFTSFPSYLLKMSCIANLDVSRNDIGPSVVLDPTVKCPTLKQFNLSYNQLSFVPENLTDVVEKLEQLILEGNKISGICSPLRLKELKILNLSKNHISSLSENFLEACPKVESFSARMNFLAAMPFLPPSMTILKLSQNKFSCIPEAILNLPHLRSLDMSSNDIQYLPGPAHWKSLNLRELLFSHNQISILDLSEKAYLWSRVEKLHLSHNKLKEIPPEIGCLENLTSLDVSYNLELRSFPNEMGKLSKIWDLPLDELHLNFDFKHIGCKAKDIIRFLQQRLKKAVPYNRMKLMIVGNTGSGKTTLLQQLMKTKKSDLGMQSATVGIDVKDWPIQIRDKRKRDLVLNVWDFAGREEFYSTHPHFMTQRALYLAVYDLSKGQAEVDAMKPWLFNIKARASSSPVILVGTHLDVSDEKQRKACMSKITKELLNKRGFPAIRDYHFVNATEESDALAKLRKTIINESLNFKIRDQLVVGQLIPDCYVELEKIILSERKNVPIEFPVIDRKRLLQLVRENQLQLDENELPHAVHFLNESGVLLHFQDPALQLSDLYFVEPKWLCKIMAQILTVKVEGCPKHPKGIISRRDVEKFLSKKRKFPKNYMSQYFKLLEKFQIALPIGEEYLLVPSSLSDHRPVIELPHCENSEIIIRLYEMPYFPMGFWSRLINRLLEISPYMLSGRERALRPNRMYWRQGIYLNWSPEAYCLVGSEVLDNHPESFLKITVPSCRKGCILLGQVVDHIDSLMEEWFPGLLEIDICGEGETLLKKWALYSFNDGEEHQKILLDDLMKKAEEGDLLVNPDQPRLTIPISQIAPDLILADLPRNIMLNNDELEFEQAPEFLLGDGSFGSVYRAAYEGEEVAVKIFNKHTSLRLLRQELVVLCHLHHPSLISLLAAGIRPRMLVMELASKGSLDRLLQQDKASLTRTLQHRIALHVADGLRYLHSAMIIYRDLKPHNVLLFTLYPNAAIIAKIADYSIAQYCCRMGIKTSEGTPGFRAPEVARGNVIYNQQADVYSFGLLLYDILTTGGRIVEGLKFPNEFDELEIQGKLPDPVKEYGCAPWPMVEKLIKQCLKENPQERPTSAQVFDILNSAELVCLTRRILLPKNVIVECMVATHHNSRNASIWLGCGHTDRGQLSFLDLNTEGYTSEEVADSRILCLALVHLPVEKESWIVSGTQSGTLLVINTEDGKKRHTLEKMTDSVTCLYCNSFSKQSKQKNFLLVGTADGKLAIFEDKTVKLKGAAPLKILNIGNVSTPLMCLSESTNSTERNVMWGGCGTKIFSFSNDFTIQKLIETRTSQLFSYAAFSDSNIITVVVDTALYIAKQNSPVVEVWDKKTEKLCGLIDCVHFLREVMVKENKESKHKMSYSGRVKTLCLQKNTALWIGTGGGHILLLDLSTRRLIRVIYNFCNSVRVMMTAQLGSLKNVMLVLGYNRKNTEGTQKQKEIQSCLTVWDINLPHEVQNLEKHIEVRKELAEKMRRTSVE

SMILES | LRRK2 pIC50
Cc1c(Nc2ncc3cc(Cl)c(C4CCN(C5COCC5F)CC4)cc3n2)cnn1C1CC1 (single isomer, unassigned) [Ex-7.4, (3S,4S) or (3R,4R) or (3S,4R) or (3R,4S) 6-chloro-N-(1-cyclopropyl-5-methyl-1H-pyrazol-4-yl)-7-[1-(4-fluorooxolan-3-yl)piperidin-4-yl]quinazolin-2-amine] | >9.20
FC1COCC1N1CC[C@H](c2cc3nc(Nc4cnn(C5CC5(F)F)c4Cl)ncc3cc2Cl)C(F)C1 (some centres unmarked) [Ex-7.2] | >9.20
Cc1c(Nc2ncc3cc(Cl)c(C4CCN(C[C@@H](O)c5cccc(F)c5F)CC4)cc3n2)cnn1C1CC1 [Ex-4.207, (1S)-2-(4-{6-chloro-2-[(1-cyclopropyl-5-methyl-1H-pyrazol-4-yl)amino]quinazolin-7-yl}piperidin-1-yl)-1-(2,3-difluorophenyl)ethan-1-ol] | 8.31
Cc1nn(CC2(C#N)CC2)cc1Nc1ncc2cc(Cl)c(C3CCN(C4COC4)CC3)cc2n1 [Ex-2.17, 1-{[4-({6-chloro-7-[1-(oxetan-3-yl)piperidin-4-yl]quinazolin-2-yl}amino)-3-methyl-1H-pyrazol-1-yl]methyl}cyclopropane-1-carbonitrile] | >9.20
Cc1c(Nc2ncc3cc(Cl)c([C@@H]4CCN([C@@H]5COC[C@@H]5O)C[C@H]4F)cc3n2)cnn1C12CC(C1)C2 (single isomer, unassigned) [Ex-4.161, (3S,4S)(3S,4S) or (3S,4S)(3R,4R) or (3R,4R)(3S,4S) or (3R,4R)(3R,4R) 4-[4-(2-{[1-(bicyclo[1.1.1]pentan-1-yl)-5-methyl-1H-pyrazol-4-yl]amino}-6-chloroquinazolin-7-yl)-3-fluoropiperidin-1-yl]oxolan-3-ol] | 8.92
Cc1c(Nc2ncc3cc(Cl)c(C4CCN(C[C@H](O)c5cccc(F)c5)CC4)cc3n2)cnn1C1CC1 [Ex-4.195, (1R)-2-(4-{6-chloro-2-[(1-cyclopropyl-5-methyl-1H-pyrazol-4-yl)amino]quinazolin-7-yl}piperidin-1-yl)-1-(3-fluorophenyl)ethan-1-ol] | 8.24
Cc1cc2cnc(Nc3cnn(C45CC(C4)C5)c3Cl)nc2cc1[C@H]1CCN([C@H]2COC[C@H]2O)C[C@@H]1F (single isomer, unassigned) [Ex-8.36, (3S,4S)(3S,4S) or (3S,4S)(3R,4R) or (3R,4R)(3S,4S) or (3R,4R)(3R,4R) 4-[4-(2-{[1-(bicyclo[1.1.1]pentan-1-yl)-5-chloro-1H-pyrazol-4-yl]amino}-6-methylquinazolin-7-yl)-3-fluoropiperidin-1-yl]oxolan-3-ol] | 8.38
O[C@H]1COC[C@H]1N1CC[C@H](c2cc3nc(Nc4cnn(C56CC(C5)C6)c4)ncc3cc2Cl)[C@@H](F)C1 (single isomer, unassigned) [Ex-4.156, (3S,4S)(3S,4S) or (3S,4S)(3R,4R) or (3R,4R)(3S,4S) or (3R,4R)(3R,4R) 4-[4-(2-{[1-(bicyclo[1.1.1]pentan-1-yl)-1H-pyrazol-4-yl]amino}-6-chloroquinazolin-7-yl)-3-fluoropiperidin-1-yl]oxolan-3-ol] | >9.20
O[C@@H]1COCC1N1CC[C@H](c2cc3nc(Nc4cnn(C5CC5(F)F)c4Cl)ncc3cc2Cl)[C@@H](F)C1 (single isomer, unassigned) [Ex-4.184, (R)(3S,4S)(3S,4S) or (R)(3S,4S)(3R,4R) or (R)(3R,4R)(3S,4S) or (R)(3R,4R)(3R,4R) or (S)(3S,4S)(3S,4S) or (S)(3S,4S)(3R,4R) or (S)(3R,4R)(3S,4S) or (S)(3R,4R)(3R,4R) 4-(6-chloro-2-{[5-chloro-1-(2,2-difluorocyclopropyl)-1H-pyrazol-4-yl]amino}quinazolin-7-yl)-3-fluoropiperidin-1-yl]oxolan-3-ol] | >9.20
O[C@@H]1COCC1N1CC[C@H](c2cc3nc(Nc4cnn(C5CC5(F)F)c4Cl)ncc3cc2Cl)[C@@H](F)C1 (single isomer, unassigned) [Ex-4.125, (R)(3S,4S)(3S,4S) or (R)(3S,4S)(3R,4R) or (R)(3R,4R)(3S,4S) or (R)(3R,4R)(3R,4R) or (S)(3S,4S)(3S,4S) or (S)(3S,4S)(3R,4R) or (S)(3R,4R)(3S,4S) or (S)(3R,4R)(3R,4R) 4-(6-chloro-2-{[5-chloro-1-(2,2-difluorocyclopropyl)-1H-pyrazol-4-yl]amino}quinazolin-7-yl)-3-fluoropiperidin-1-yl]oxolan-3-ol] | 8.16
Cc1cc2cnc(Nc3cnn(C4CC4)c3Cl)nc2cc1[C@H]1CCN(C2COC2)C[C@@H]1F (single isomer, unassigned) [Ex-4.85, (3S,4S) or (3R,4R) N-(5-chloro-1-cyclopropyl-1H-pyrazol-4-yl)-7-[3-fluoro-1-(oxetan-3-yl)piperidin-4-yl]-6-methylquinazolin-2-amine] | 8.76
N#CC1CCC(N2CC[C@@H](c3cc4nc(Nc5cnn(C6CC6)c5Cl)ncc4cc3Cl)[C@H](F)C2)C1 (single isomer, unassigned) [Ex-4.111, (1R,3S)-3-((3S,4S) or (1S,3R)-3-((3S,4S) or (1R,3R)-3-((3S,4S) or (1S,3S)-3-((3S,4S) or (1R,3S)-3-((3R,4R) or (1S,3R)-3-((3R,4R) or (1R,3R)-3-((3R,4R) or 1S,3S)-3-((3R,4R) 4-(6-chloro-2-((5-chloro-1-cyclopropyl-1H-pyrazol-4-yl)amino)quinazolin-7-yl)-3-fluoropiperidin-1-yl)cyclopentane-1-carbonitrile] | 8.55
CC1(n2ncc(Nc3ncc4cc(Cl)c(C5CCN([C@]6(C)COC[C@@H]6O)CC5)cc4n3)c2Cl)CC1 (single isomer, unassigned) [Ex-2.88, (3S,4S) or (3R,4R) 4-[4-(6-chloro-2-{[5-chloro-1-(1-methylcyclopropyl)-1H-pyrazol-4-yl]amino}quinazolin-7-yl)piperidin-1-yl]-4-methyloxolan-3-ol] | >9.20
Cc1c(Nc2ncc3cc(Cl)c([C@@H]4CCN(C5COC5)C[C@H]4F)cc3n2)cnn1CC(C)(C)O (single isomer, unassigned) [Ex-4.63, (3S,4S) or (3R,4R) 1-[4-({6-chloro-7-[3-fluoro-1-(oxetan-3-yl)piperidin-4-yl]quinazolin-2-yl}amino)-5-methyl-1H-pyrazol-1-yl]-2-methylpropan-2-ol] | 8.83
CC1(N2CCC(c3cc4nc(Nc5cnn(C67CC(CO)(C6)C7)c5)ncc4cc3Cl)CC2)COC1 [Ex-2.57, {3-[4-({6-chloro-7-[1-(3-methyloxetan-3-yl)piperidin-4-yl]quinazolin-2-yl}amino)-1H-pyrazol-1-yl]bicyclo[1.1.1]pentan-1-yl}methanol] | >9.20
CC1(N2CCC(c3cc4nc(Nc5cnn(C6CC6)c5Cl)ncc4cc3Cl)CC2)COC1 [Ex-8.10, 6-chloro-N-(5-chloro-1-cyclopropyl-1H-pyrazol-4-yl)-7-[1-(3-methyloxetan-3-yl)piperidin-4-yl]quinazolin-2-amine] | 9.08
Clc1cc2cnc(Nc3cnn(C4CC4)c3Cl)nc2cc1C1CCN(C2COC(C3CC3)C2)CC1 (single isomer, unassigned) [Ex-4.166, (3R,5R) or (3S,5R) or (3R,5S) or (3S,5S) 6-chloro-N-(5-chloro-1-cyclopropyl-1H-pyrazol-4-yl)-7-[1-(5-cyclopropyloxolan-3-yl)piperidin-4-yl]quinazolin-2-amine] | 9.17
Clc1cc2cnc(Nc3cnn(C4CC4)c3Cl)nc2cc1C1CCN(C2COC(C3CC3)C2)CC1 (single isomer, unassigned) [Ex-4.167, (3R,5R) or (3S,5R) or (3R,5S) or (3S,5S) 6-chloro-N-(5-chloro-1-cyclopropyl-1H-pyrazol-4-yl)-7-[1-(5-cyclopropyloxolan-3-yl)piperidin-4-yl]quinazolin-2-amine] | 8.14
CC1(N2CCC(n3ncc(Nc4ncc5cc(Cl)c(C6CC6(F)F)cc5n4)c3Cl)C(F)C2)COC1 (single isomer, unassigned) [Ex-3.2, (3R,4R)(7S) or (3R,4R)(7R) or (3S,4S)(7S) or (3S,4S)(7R) 6-chloro-N-(5-chloro-1-(3-fluoro-1-(3-methyloxetan-3-yl)piperidin-4-yl)-1H-pyrazol-4-yl)-7-(2,2-difluorocyclopropyl)quinazolin-2-amine] | 7.07

Same assay, conditions: G2019S LRRK2, 134 μM ATP (Km ATP), mean values; read-out: LRRK2 pIC50 (converted)

SMILES | IC50 [nM]
CC(n1ncc(Nc2ncc3cc(Cl)c(C4CCN(C5COC5)CC4)cc3n2)c1Cl)C(C)(C)O (single isomer, unassigned) [Ex-4.67, (S) or (R) 3-[5-chloro-4-({6-chloro-7-[1-(oxetan-3-yl)piperidin-4-yl]quinazolin-2-yl}amino)-1H-pyrazol-1-yl]-2-methylbutan-2-ol] | < 0.631
Cc1c(Nc2ncc3cc(Cl)c(C4CCN(C5COC5)CC4)cc3n2)cnn1C1CCOC1 (single isomer, unassigned) [Ex-2.23, (S) or (R) 6-chloro-N-[5-methyl-1-(oxolan-3-yl)-1H-pyrazol-4-yl]-7-[1-(oxetan-3-yl)piperidin-4-yl]quinazolin-2-amine] | 1.15
Cc1c(Nc2ncc3cc(Cl)c(C4CCN(C5COC(C)(C)C5)CC4)cc3n2)cnn1C1CC1 (single isomer, unassigned) [Ex-4.174, (R) or (S) 6-chloro-N-(1-cyclopropyl-5-methyl-1H-pyrazol-4-yl)-7-[1-(5,5-dimethyloxolan-3-yl)piperidin-4-yl]quinazolin-2-amine] | < 0.631
Cc1nsc(Nc2ncc3cc(Cl)c([C@@H]4CCN(C5COC5)C[C@H]4F)cc3n2)c1Cl (single isomer, unassigned) [Ex-4.88, (3S,4S) or (3R,4R) 6-chloro-N-(4-chloro-3-methyl-1,2-thiazol-5-yl)-7-[3-fluoro-1-(oxetan-3-yl)piperidin-4-yl]quinazolin-2-amine] | 3.8
